{"source": "ChEMBL document CHEMBL1201862", "about": "“PubChem BioAssay data set” (2004)", "key": {"Cytochrome P450 2C19": {"target": "Cytochrome P450 2C19 (Homo sapiens, UniProt P33261)", "sequence (P33261 whole entry)": "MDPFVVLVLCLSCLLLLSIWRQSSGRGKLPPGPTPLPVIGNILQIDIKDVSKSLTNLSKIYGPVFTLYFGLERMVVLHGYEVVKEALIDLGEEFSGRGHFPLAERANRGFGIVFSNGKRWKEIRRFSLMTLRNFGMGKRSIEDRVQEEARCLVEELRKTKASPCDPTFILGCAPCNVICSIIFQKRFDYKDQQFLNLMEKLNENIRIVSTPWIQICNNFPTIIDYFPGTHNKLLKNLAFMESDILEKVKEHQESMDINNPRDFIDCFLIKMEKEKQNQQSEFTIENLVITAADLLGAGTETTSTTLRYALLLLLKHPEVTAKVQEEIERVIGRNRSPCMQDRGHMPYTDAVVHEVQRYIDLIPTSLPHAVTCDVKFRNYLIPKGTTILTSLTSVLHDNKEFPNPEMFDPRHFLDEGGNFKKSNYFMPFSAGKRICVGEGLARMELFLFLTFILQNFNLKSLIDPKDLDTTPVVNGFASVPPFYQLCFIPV", "assay": "Cytochrome panel assay with activity outcomes. Panel member name: p450-cyp2c19 Compounds with AC50 equal or less than 10 uM are considered active", "type": "functional", "conditions": "read-out: AC50"}, "Cytochrome P450 3A4": {"target": "Cytochrome P450 3A4 (Homo sapiens, UniProt P08684)", "sequence (P08684 whole entry)": "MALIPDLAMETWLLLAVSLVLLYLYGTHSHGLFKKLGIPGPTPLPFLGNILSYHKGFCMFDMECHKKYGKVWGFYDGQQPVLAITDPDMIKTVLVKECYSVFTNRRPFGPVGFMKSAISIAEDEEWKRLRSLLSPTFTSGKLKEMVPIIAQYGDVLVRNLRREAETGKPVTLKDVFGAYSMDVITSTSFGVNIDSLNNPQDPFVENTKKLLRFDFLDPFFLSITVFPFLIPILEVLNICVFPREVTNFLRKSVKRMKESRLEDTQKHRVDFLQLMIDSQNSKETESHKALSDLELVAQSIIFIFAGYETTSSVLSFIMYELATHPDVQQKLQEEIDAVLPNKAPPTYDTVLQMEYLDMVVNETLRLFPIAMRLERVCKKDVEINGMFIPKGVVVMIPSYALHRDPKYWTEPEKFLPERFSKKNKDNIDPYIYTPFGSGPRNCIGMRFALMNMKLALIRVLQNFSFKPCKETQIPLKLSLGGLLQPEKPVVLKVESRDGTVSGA"}, "[1]": {"target": "T1, Heat shock factor protein 1 (Mus musculus, UniProt P38532)", "T1 sequence (P38532 whole entry)": "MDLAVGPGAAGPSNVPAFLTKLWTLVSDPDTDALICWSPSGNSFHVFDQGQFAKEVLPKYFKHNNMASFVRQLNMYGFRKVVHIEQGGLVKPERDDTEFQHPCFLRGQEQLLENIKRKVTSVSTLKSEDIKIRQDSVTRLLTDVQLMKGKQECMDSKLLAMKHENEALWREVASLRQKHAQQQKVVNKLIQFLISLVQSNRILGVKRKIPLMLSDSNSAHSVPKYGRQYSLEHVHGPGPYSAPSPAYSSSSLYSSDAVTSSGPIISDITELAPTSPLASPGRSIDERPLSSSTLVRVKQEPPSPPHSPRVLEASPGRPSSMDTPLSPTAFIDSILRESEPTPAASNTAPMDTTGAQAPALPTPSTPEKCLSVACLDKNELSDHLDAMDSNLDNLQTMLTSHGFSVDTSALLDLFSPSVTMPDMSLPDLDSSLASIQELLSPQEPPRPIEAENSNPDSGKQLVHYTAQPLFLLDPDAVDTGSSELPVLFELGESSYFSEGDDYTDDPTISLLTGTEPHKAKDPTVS", "assay": "inhibition of MG132-induced HSE-luciferase signal, confirmation, cell-based, NIH3T3, luminescence, dose retest (AID 2382);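 note: NIH3T3 fibroblasts with HSF1-driven luciferase reporter stressed by proteasome inhibitor MG132; luminescence from HSF1-driven luciferase expression after 8 hours of MG132 stress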", "type": "functional"}, "Cytochrome P450 2D6": {"target": "Cytochrome P450 2D6 (Homo sapiens, UniProt P10635)", "sequence (P10635 whole entry)": "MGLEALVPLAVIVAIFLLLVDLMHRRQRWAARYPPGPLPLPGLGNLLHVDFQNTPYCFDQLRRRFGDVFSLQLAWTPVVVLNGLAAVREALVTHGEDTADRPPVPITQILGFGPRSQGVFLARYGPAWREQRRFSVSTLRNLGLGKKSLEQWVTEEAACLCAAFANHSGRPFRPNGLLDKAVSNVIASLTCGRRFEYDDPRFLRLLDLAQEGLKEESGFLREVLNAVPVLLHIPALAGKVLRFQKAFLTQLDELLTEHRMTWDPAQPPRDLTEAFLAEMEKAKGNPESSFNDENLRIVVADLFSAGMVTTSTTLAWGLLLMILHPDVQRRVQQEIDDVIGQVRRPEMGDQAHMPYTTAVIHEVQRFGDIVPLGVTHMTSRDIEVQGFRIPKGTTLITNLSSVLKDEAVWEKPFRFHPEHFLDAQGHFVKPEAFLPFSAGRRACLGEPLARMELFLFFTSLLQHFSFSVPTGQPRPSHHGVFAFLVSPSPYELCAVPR"}, "HEK293 [2]": {"tested_on": "HEK293", "assay": "optical interference in Abeta FP readout, dose response, artefact control for IDE activator project, biochemical, fluorescence polarization (AID 588442)", "type": "functional, cell-based", "conditions": "Homo sapiens"}, "[3]": {"target": "T2, Apoptotic protease-activating factor 1 (Homo sapiens, UniProt O14727)", "T2 sequence (O14727 whole entry)": "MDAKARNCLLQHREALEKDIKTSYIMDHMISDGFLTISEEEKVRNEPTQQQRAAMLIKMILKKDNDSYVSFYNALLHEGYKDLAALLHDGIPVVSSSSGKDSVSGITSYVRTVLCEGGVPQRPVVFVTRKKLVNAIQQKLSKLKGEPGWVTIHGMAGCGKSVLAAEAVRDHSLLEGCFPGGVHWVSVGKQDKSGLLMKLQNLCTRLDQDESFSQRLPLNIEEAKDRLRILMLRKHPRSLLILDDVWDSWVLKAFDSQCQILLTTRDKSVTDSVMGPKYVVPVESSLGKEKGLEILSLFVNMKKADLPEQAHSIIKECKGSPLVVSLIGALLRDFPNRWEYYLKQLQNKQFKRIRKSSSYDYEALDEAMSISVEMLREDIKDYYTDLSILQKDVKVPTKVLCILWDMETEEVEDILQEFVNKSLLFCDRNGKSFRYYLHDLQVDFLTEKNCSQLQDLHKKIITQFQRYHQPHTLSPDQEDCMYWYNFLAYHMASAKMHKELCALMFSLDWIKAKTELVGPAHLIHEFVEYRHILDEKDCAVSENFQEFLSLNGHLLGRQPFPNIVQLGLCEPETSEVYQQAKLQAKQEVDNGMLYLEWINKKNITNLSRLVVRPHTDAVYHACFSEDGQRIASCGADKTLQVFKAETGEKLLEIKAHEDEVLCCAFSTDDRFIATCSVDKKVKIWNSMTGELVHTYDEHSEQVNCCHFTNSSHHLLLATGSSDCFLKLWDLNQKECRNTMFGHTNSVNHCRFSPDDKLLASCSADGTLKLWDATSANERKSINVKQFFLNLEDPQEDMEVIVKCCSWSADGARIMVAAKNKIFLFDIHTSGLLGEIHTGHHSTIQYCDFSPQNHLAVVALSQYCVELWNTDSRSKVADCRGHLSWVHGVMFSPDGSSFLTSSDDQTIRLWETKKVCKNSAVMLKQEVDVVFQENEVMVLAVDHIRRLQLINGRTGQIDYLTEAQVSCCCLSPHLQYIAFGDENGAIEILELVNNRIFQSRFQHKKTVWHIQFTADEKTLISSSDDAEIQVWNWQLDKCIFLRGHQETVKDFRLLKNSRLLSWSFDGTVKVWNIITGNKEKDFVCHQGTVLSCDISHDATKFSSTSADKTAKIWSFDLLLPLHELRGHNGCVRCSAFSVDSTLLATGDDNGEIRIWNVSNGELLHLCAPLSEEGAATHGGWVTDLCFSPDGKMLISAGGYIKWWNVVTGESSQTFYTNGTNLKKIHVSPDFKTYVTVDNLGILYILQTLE", "type": "functional"}, "[4]": {"target": "UDP-galactopyranose mutase (Mycobacterium tuberculosis, UniProt P9WIQ1)", "sequence (P9WIQ1 whole entry)": "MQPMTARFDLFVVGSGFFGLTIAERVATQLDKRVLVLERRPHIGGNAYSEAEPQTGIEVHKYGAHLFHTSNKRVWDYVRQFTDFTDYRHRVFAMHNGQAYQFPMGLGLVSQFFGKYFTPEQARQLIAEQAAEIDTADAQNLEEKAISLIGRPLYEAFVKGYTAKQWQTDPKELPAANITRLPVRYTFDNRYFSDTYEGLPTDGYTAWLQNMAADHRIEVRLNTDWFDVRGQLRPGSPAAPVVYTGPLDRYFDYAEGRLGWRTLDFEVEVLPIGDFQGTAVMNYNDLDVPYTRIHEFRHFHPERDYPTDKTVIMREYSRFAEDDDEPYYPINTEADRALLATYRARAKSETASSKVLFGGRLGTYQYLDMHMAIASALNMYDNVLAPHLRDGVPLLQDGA", "assay": "Inhibitors of Mycobacterium tuberculosis UDP-galactopyranose mutase (UGM) enzyme Measured in Biochemical System Using Plate Reader - 2105-02_Inhibitor_Dose_CherryPick_Activity. [Related pubchem assays (depositor defined):AID504439]"}, "ORF 73": {"target": "ORF 73 (Human herpesvirus 8, UniProt O40947)", "sequence (O40947 whole entry)": "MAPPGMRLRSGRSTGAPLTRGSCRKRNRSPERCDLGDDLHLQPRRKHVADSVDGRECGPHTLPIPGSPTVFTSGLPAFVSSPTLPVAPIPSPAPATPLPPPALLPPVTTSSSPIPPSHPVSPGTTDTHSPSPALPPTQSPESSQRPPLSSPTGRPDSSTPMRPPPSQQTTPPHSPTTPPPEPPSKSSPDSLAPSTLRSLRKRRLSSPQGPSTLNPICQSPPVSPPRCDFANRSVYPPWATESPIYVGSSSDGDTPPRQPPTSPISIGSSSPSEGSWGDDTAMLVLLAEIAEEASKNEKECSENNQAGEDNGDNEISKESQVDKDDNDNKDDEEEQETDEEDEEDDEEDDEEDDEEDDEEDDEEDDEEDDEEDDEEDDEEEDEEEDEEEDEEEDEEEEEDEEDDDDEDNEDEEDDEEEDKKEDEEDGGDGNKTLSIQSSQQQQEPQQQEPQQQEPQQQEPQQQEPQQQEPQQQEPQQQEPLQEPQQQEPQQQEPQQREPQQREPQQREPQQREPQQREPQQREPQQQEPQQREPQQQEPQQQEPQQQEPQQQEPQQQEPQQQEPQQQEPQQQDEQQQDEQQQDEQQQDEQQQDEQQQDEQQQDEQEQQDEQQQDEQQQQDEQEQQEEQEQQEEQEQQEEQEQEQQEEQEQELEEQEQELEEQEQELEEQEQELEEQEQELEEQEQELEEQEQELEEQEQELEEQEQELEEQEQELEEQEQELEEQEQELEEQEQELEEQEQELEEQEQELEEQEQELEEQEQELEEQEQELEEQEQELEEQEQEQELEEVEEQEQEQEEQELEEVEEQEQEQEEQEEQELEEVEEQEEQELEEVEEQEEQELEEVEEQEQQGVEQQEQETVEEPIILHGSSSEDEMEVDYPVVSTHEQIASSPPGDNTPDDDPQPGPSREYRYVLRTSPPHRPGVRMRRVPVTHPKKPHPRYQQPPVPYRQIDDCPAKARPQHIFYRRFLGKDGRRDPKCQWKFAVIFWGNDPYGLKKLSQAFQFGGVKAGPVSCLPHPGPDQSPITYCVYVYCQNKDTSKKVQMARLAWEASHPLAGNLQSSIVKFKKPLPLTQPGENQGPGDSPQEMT", "assay": "inhibitors of C-LANA binding to LBS DNA, dose response, biochemical, fluorescence polarization, cherry-picked samples (AID 504725);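 note: fluorescence polarization of a labeled DNA duplex reporting LANA DNA binding; potency is for inhibitors that block LANA binding to the DNA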", "design": "species or system Human gammaherpesvirus 8"}, "Insulin-degrading enzyme [5]": {"target": "T3, Insulin-degrading enzyme (Homo sapiens, UniProt P14735)", "T3 sequence (P14735 whole entry)": "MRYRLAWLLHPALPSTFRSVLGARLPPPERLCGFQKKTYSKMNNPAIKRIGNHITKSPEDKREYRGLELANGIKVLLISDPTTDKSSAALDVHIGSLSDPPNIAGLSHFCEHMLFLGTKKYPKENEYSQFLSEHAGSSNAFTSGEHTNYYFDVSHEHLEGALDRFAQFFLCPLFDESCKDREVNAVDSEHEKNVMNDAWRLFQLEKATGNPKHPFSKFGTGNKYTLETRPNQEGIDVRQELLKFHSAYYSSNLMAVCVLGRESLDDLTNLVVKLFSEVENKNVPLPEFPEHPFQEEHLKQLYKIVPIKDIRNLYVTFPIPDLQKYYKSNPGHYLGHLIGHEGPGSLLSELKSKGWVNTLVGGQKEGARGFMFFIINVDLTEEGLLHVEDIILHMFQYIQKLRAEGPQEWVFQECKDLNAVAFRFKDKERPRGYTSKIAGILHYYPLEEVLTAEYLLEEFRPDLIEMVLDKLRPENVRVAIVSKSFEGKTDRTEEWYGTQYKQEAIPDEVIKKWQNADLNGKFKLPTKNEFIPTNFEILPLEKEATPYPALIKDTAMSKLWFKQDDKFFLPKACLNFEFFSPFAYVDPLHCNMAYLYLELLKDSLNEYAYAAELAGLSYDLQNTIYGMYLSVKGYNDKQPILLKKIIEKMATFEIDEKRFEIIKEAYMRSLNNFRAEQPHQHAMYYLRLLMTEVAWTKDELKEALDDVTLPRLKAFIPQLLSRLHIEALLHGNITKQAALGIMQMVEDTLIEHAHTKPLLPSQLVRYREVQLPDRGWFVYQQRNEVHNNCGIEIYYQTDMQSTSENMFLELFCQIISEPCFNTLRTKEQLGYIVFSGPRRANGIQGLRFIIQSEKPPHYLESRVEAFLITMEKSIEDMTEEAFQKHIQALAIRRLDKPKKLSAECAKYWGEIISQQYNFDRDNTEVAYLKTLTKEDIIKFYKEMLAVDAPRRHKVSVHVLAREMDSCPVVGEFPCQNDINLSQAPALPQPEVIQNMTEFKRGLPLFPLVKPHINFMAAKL", "assay": "activators of endogenous IDE in HEK cells, dose response, cell-based, fluorescence polarization (AID 588439)", "type": "functional"}, "Insulin-degrading enzyme [6]": {"target": "T3, Insulin-degrading enzyme", "assay": "activators of recombinant IDE enzyme, dose response, counter-screen for IDE activator project, biochemical, fluorescence polarization (AID 588681)"}, "HEK293 [7]": {"tested_on": "HEK293", "assay": "HEK cell cytotoxicity by LDH release, dose response, cytotoxicity control for IDE activator project, fluorescence, HEK cells (AID 588440);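 note: cytotoxicity by LDH release measuring loss of membrane integrity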", "type": "functional, cell-based", "conditions": "Homo sapiens"}, "[8]": {"target": "Beta-adrenergic receptor kinase 1 (Homo sapiens, UniProt P25098)", "sequence (P25098 whole entry)": "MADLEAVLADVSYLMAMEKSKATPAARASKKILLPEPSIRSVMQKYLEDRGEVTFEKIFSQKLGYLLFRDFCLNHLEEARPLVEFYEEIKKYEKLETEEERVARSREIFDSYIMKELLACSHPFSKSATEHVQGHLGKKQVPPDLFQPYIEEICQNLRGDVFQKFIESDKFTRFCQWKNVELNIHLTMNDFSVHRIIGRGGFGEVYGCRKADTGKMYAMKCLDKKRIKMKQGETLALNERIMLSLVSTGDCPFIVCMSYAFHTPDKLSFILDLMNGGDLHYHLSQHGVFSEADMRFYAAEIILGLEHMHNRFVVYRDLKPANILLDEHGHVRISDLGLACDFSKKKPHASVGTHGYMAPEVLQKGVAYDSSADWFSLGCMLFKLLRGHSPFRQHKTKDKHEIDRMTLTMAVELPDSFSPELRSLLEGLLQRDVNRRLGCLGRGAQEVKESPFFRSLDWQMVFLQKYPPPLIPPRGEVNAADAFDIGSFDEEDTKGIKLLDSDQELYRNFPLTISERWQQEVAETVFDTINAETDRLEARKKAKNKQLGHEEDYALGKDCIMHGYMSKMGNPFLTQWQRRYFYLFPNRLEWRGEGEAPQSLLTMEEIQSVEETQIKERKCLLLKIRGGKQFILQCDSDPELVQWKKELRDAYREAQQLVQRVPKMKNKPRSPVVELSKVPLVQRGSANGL", "assay": "GRK2 inhibitors displacing RNA aptamer, dose response, biochemical, flow cytometry beads, FAM-aptamer, powder set 1 (AID 588720)"}, "[9]": {"assay": "off-target signal loss in HeLa-CEM21 co-culture – HeLa F-luc CTL cells, cherry-picked, counter-screen for HIV-1 Env fusion inhibitor project, dose response (AID 652040);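 note: potency for signal decrease marking cytotoxic or nonspecific inhibition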", "type": "functional, cell-based"}, "[10]": {"assay": "inhibitors of SNCA 5'UTR-driven reporter translation, confirmation, H4 neuroglioma cells, luminescence (AID 1988)", "type": "functional, cell-based"}, "[11]": {"assay": "cytotoxicity in HEK-293T NF-kB-Luc cells, dose response, cytotoxicity control for B/T-cell NF-kB inhibitor project, cell-based, uHTS hits (AID 489019);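 note: IC50 reflects cytotoxicity as loss of cell viability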", "type": "functional"}, "[12]": {"assay": "inhibitors of firefly luciferase expression or activity, dose response, H4 neuroglioma cells, luminescence (AID 1990)", "type": "functional, cell-based"}, "[13]": {"assay": "CEM21 lymphoblast cell cytotoxicity, dose response, cytotoxicity control for viral fusion inhibitor project, CellTiter-Glo luminescence, cherry-picked (AID 652042);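 note: potency for signal decrease meaning cytotoxicity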", "type": "functional, cell-based"}, "[14]": {"assay": "Luminescence Cell-Based Dose Response HTS to Identify Inhibitors of 5'UTR Stem-Loop Driven Prion Protein mRNA Translation in H4 Neuroglioblastoma Cells. [Related pubchem assays: 1827 (Project Summary), 1813 (Primary HTS)]", "type": "functional"}, "[15]": {"assay": "inhibitors of clade B AD8 Env fusion, dose response, cell-based, cherry-pick (AID 652062);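 note: potency is for inhibitors of fusion seen as a drop in luminescence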", "type": "functional"}, "Jurkat": {"tested_on": "Jurkat", "assay": "antigen receptor-induced NF-kB inhibitors, dose response, Jurkat, luciferase reporter, luminescence, B- and T-cell (AID 489004);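 note: NF-kB luciferase reporter Jurkat cells stimulated with PMA plus ionomycin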", "type": "functional, cell-based", "conditions": "Homo sapiens"}, "Beta Lactamase": {"target": "Beta Lactamase (Pseudomonas aeruginosa, UniProt Q932Y6)", "assay": "beta-lactamase reporter inhibitor potency, dose response, artefact control for TLR9-MyD88 binding inhibitor project, BLA reporter cells, FRET fluorescence (AID 588341);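 note: cell based assay in CHO-K1 cells stably expressing beta-lactamase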", "type": "cell-based"}, "Keap1/Nrf2": {"target": "Keap1/Nrf2 (Homo sapiens, UniProt Q14145)", "sequence (Q16236 whole entry)": "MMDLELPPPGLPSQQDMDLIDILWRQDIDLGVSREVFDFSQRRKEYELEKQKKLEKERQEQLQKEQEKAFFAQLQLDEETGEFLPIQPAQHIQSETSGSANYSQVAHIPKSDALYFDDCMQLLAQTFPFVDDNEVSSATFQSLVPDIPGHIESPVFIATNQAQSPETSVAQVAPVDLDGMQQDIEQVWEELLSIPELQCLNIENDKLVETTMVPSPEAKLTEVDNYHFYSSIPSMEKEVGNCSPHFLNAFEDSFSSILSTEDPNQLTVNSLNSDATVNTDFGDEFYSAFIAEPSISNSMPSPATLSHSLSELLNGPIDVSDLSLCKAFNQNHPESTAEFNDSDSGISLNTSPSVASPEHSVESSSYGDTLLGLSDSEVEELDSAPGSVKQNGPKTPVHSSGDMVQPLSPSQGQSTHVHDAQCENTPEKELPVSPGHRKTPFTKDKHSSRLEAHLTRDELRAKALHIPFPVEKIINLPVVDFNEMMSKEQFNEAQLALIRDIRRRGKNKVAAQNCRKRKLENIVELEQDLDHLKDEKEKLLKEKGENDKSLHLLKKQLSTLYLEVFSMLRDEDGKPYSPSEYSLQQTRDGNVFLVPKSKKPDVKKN", "sequence (Q14145 whole entry)": "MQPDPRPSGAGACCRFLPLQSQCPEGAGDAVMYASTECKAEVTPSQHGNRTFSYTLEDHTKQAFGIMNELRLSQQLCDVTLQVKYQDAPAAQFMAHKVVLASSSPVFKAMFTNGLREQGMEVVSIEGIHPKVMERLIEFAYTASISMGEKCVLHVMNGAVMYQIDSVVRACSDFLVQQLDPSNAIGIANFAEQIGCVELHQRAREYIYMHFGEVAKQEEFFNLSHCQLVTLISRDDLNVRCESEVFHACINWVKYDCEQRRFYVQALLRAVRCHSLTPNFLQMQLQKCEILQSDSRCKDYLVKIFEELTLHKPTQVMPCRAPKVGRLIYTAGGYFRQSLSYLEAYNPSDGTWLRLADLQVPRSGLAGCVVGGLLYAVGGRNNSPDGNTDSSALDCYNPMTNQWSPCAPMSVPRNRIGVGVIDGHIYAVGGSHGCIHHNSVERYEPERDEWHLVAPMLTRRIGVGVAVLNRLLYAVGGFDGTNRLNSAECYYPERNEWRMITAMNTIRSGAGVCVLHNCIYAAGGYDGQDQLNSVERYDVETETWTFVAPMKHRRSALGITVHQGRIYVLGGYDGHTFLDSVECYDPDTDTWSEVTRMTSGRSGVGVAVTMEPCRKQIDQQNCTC", "assay": "Keap1-Nrf2 protein-protein interaction inhibitors, dose response, biochemical, fluorescence polarization, cherry-picked samples (AID 588683)"}, "[16]": {"target": "Dual specificity tyrosine-phosphorylation-regulated kinase 1A (Rattus norvegicus, UniProt Q63470)", "type": "biochemical, Homo sapiens"}, "CHO": {"tested_on": "CHO", "assay": "cytotoxicity in TLR9-MyD88 CHO cells, dose response, cytotoxicity control for TLR9-MyD88 binding inhibitor project, cell-based, luminescence (AID 588339);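 note: compound exposure lasted 48 hours before viability readout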", "type": "functional, hamster", "conditions": "Cricetulus griseus"}, "Candida albicans": {"tested_on": "Candida albicans", "assay": "growth inhibition of resistant C. albicans, dose response, CaCi-8, fluconazole, Alamar Blue, dry powder (AID 488807)", "type": "functional, organism-based"}}, "note": "Activity calls are given as the source filed them.", "data": [{"smiles": "CCOC(=O)Cc1csc(NC(=O)c2sc3nc4ccc(CC)cc4cc3c2N)n1", "values": [{"measurement": "AC50", "setting": "Cytochrome P450 2C19", "value": "0.2 µM (inconclusive)"}, {"measurement": "AC50", "setting": "Cytochrome P450 3A4", "value": "35.5 µM (inconclusive)"}, {"measurement": "EC50", "setting": "[1]", "value": "> 195 µM (not active)"}, {"measurement": "AC50", "setting": "Cytochrome P450 2D6", "value": "inconclusive"}]}, {"smiles": "CCOc1ccc2noc3c2c1C(=O)c1ccccc1-3", "values": [{"measurement": "EC50", "setting": "HEK293 [2]", "value": "4.95 µM (active)"}, {"measurement": "IC50", "setting": "[3]", "value": "87.4 µM (active)"}, {"measurement": "AC50", "setting": "[4]", "value": "0.356 µM (active)"}, {"measurement": "AC50", "setting": "ORF 73", "value": "0.572 µM (active)"}, {"measurement": "EC50", "setting": "Insulin-degrading enzyme [5]", "value": "> 54.7 µM (inactive)"}, {"measurement": "EC50", "setting": "Insulin-degrading enzyme [6]", "value": "> 54.7 µM (inactive)"}, {"measurement": "IC50", "setting": "HEK293 [7]", "value": "> 89.1 µM (inactive)"}]}, {"smiles": "COc1ccc(CCNC(=O)CCS(=O)(=O)c2ccc(Br)cc2)cc1OC", "values": [{"measurement": "EC50", "setting": "[8]", "value": "14.9 µM (active)"}]}, {"smiles": "CCOc1ccc(-c2cc(CCCC(=O)Nc3cccc(OC)c3)no2)cc1", "values": [{"measurement": "AC50", "setting": "[9]", "value": "55.4 µM (active)"}, {"measurement": "EC50", "setting": "[10]", "value": "3.89 µM (active)"}, {"measurement": "IC50", "setting": "[11]", "value": "> 80 µM (inactive)"}, {"measurement": "EC50", "setting": "[12]", "value": "7.56 µM (active)"}, {"measurement": "AC50", "setting": "[13]", "value": "58.9 µM (active)"}, {"measurement": "EC50", "setting": "[14]", "value": "0.24 µM (active)"}, {"measurement": "AC50", "setting": "[15]", "value": "2.45 µM (active)"}, {"measurement": "IC50", "setting": "Jurkat", "value": "9.95 µM (active)"}]}, {"smiles": "Oc1ccc2nnc3c(Br)cnn3c2c1", "values": [{"measurement": "IC50", "setting": "Beta Lactamase", "value": "6.63 µM (active)"}, {"measurement": "AC50", "setting": "ORF 73", "value": "6.64 µM (active)"}, {"measurement": "AC50", "setting": "Keap1/Nrf2", "value": "16.1 µM (active)"}, {"measurement": "AC50", "setting": "[16]", "value": "1.11 µM (active)"}, {"measurement": "IC50", "setting": "CHO", "value": "> 49.8 µM (inactive)"}]}, {"smiles": "O=C(O)c1c2ccccc2nn1Cc1ccc(Cl)cc1", "values": [{"measurement": "AC50", "setting": "Candida albicans", "value": "149 µM (active)"}]}]}
